Measurements taken from patent US20200347389A1, “COMPOSITIONS AND METHODS FOR GENERATING DIVERSITY AT TARGETED NUCLEIC ACID SEQUENCES” (MONSANTO TECHNOLOGY LLC, priority 2019, published 2020).

Legend:
rpoB gene [1] = assay: rpoB/Rif^r assay: EMS mutagenesis of E. coli KL16 carrying pNUC-dSpCas9 + pGUIDE-Sp-Zm7.1; format: cell-based, Escherichia coli; conditions: for Rif^r CFUs in 5 μL (average) / Rif^r CFUs in 100 μL (average): one hour, cells with pNUC-dCas9 + pGUIDE-Sp-Zm7.1
Text: This example describes the Escherichia coli rpoB gene and Rifampicin-resistant (Rif^r) mutations that map to rpoB as a system to characterize mutation rates and mutation types induced by chemical mutagens.
The E. coli K12 (strain MG1655) rpoB gene (SEQ ID NO: 1) encodes a subunit of the RNA polymerase complex (SEQ ID NO: 2) and is the target of the antibiotic rifampicin, a bacterial transcription inhibitor. A unique feature of the rpoB gene is that at least 69 nucleotide substitutions in 24 amino acid codons can confer the Rif^r phenotype to E. coli. This makes rpoB a useful target for screening and analyzing the type and frequency of nucleotide changes (e.g., additions, deletions, and substitutions induced by mutagens (reviewed in Garibyan et al., 2003, DNA Repair, 2:593-608). Furthermore, a majority of mutations that confer Rifampicin resistance (>90%) map to a relatively small, 268-nucleotide long, region of the rpoB gene. This allows PCR amplification with a single pair of oligonucleotide primers, followed by sequencing, which permits rapid analysis of numerous potential mutations. The aforementioned 268-bp fragment of the E. coli K12 rpoB gene is set forth as SEQ ID NO: 3. […] However, mutants comprising short, in-frame deletions (up to five amino acids) have been found, but at a much lower frequency (see, for example, Jin and Gross, J Mol Biol. 202:45-58 (1988)).
To test the rate and spectrum of mutations induced by EMS on rpoB, an experiment was performed where E. coli KL16 cells were co-transformed with pNUC-dSpCas9 and pGUIDE-Sp-Zm7.1; treated with 0.1% or 1% EMS. Resulting Rif^r mutations were selected and scored. The rpoB gene fragment (SEQ ID NO: 3) was sequenced from each colony and the predominant mutations were identified. As noted above in Example 2, pGUIDE-Sp-Zm7.1 is not expected to target the E. coli chromosome, and thus serves as a negative control.
Approximately 0.7 μL of pNUC-dSpCas9 and pGUIDE-Sp-Zm7.1 plasmid DNAs (approximate concentrations of 50 to 150 ng/μL) were added to 30 μL aliquots of electrocompetent E. coli KL16 cells. The cells and DNA were electroporated in 1 mm gap cuvettes, using Bio-Rad GenePulser II with settings described above in Example 2. Approximately 1 mL of S.O.C. medium was added to the cuvettes, mixed, transferred to culture tubes, and shaken in a 37° C. incubator shaker for ˜90 min at 280 RPM. Approximately 20 μL of the mix was diluted with 380 μL of S.O.C. medium (1:20 dilution), 100 μL was plated on LB plates containing +25 μg/mL Cm, +50 μg/mL Spect antibiotics followed by overnight incubation at 37° C. After overnight growth, the plates contained ˜100-400 uniform single colonies. Four to five single colonies from the plates were picked and mixed in 2.5 mL liquid LB media containing +25 μg/mL Cm, +50 μg/mL Spect. The culture was grown overnight at 37° C. with shaking at 280 RPM. The following day the saturated overnight culture was diluted into 3 mL of fresh LB +25 μg/mL Cm, +50 μg/mL Spect at a 1:20 ratio. After growth for ˜3 hours shaking (280 RPM) at 37° C., the culture was in exponential growth with an A600 absorbance measurement of ˜1. The culture was split into three 1 mL aliquots in Eppendorf tubes, then spun at full speed for one minute. The LB supernatant was removed and the small pellets were resuspended by gentle pipetting into 1 mL PBS and transferred to culture tubes.
Approximately 1 μL of EMS (Sigma M0880) was added to the first tube (0.1% EMS, final conc.) and approximately 10 μL of EMS was added to the second tube (1% EMS, final conc.). The third tube received no EMS (0% EMS). After mixing, the tubes were incubated at 37° C. with shaking for one hour. The 1 mL cultures were transferred back into Eppendorf tubes and spun at full speed for 1 minute. The pellets were washed once with PBS to remove EMS and resuspended in 1 mL LB+25 μg/mL Cm, +50 μg/mL Spect. […]

rpoB gene [2] = assay: Deep sequencing of the rpoB fragment from Rif^r colonies; format: cell-based, Escherichia coli; conditions: 0.1% and 1% EMS, untargeted dCas9
Protocol: Ninety-six Rif^r colonies from 0.1% and 1% EMS treatment assays were picked and colony PCR was carried out to amplify the […] rpoB fragment. Approximately 20 μL PCRs reactions were carried out in 96 well plates, using forward and reverse primers comprising Illumina barcoded adaptors and designed to amplify a […] rpoB fragment associated with mutations conferring the Rif^r phenotype. The success of the reactions was checked by running ˜5 μL of 8-12 samples picked from across the 96 wells and running on e-gels. […] After obtaining the raw reads, adaptor sequences were removed with the program Cutadapt (Martin, EMBnet.journal, 2011, [S1], v17, n1, p. pp. 10-12, ISSN 2226-6089) and low quality reads are filtered with Trimmomatic (Version 0.36) (Bolger et al., Bioinformatics, 30:2114 (2014)). The program ‘glsearch’ (Pearson, Methods Mol Biol., 132:185-219 (2000)), was used to map reads to the reference rpoB sequence and to detect substitutions and small INDELs. […]
Individual colonies as well as plate scrapes (pooled colonies) were sequenced. […] Quality reads were obtained from 71 colonies for treatment 1, 92 colonies for treatment 2, and 89 colonies for treatment 3. Quality reads were also obtained from the Plate scrape samples.

[3] = EMS-mutated populations; cited from earlier work
rpoB gene [4] = conditions: at eight sites; Garibyan et al.; cited from earlier work
DNA = conditions: D832A/E925A (dLbCpf1); D10A/H840A (dSpCas9); cited from earlier work

Molecule | increase of mutation rate relative to the spontaneous mutation rate (rpoB gene [1]; 0.1% EMS) [×] | Rif^r CFUs in 5 μL (average) (rpoB gene [1]; 0.1% EMS) [CFUs] | Rif^r CFUs in 100 μL (average) (rpoB gene [1]; 0.1% EMS) [CFUs] | increase of mutation rate relative to the spontaneous mutation rate (rpoB gene [1]; 1.0% EMS) [×] | Rif^r CFUs in 5 μL (average) (rpoB gene [1]; 1% EMS) [CFUs] | Rif^r CFUs in 100 μL (average) (rpoB gene [1]; 1% EMS) | colonies with an in-frame 15 nucleotide deletion (rpoB gene [2]) | mutations previously described as inducing the Rif^r phenotype identified in the EMS screen (rpoB gene [2]) | modifications that are G:C→A:T base pair transitions [3] | mutations identified within the 268-bp stretch of rpoB, all G:C→A:T transitions (rpoB gene [4]) | DNA cleavage activity (DNA)
CCOS(C)(=O)=O [EMS, ethyl methanesulfonate] | ~40 | 18 | 280 | ~2600 | 1036 | >10^4 CFUs | Four | ten of the thirteen | 70% to 99% | 40 | –
dSpCas9: dead SpCas9 with D10A and H840A substitutions (SEQ ID NO: 22) | – | – | – | – | – | – | – | – | – | – | complete abolishment of DNA cleavage activity
